# Test results published in BindingDB's records for doi:10.1016/s0960-894x(99)00237-1 (Warner-Lambert, 1999).
# Legend:
# [1] = molecular target: T1, Human immunodeficiency virus type 1 protease (Human immunodeficiency virus 1, UniProt Q72874); assay: In vitro binding affinity against HIV protease at pH 6.2.
# [2] = molecular target: T1, Human immunodeficiency virus type 1 protease; assay: Binding affinity towards HIV protease was determined
# [3] = molecular target: T1, Human immunodeficiency virus type 1 protease; assay: ChEBML_157707; conditions: pH 6.2
# Protocol: In vitro binding affinity against HIV protease at pH 6.2 was determined
IC50 [1] [nM],Ki [2] [nM],Ki [3] [nM],SMILES
11,,,"Cc1cc(SC2C(=O)CC(CCc3ccc(O)cc3)(C(C)C)OC2=O)c(C(C)(C)C)cc1N(C)C (configuration not stated) [3-(2-tert-Butyl-4-dimethylamino-5-methyl-phenylsulfanyl)-4-hydroxy-6-[2-(4-hydroxy-phenyl)-ethyl]-6-isopropyl-5,6-dihydro-pyran-2-one]"
11,,,"Cc1cc(SC2C(=O)CC(CCc3ccccc3)(c3ccccc3)OC2=O)c(C(C)(C)C)cc1N (configuration not stated) [3-(4-Amino-2-tert-butyl-5-methyl-phenylsulfanyl)-4-hydroxy-6-phenethyl-6-phenyl-5,6-dihydro-pyran-2-one]"
,0.07,0.07,"Cc1cc(SC2C(=O)C[C@@](CCc3ccc(O)cc3)(C(C)C)OC2=O)c(C(C)(C)C)cc1N (stereo partly drawn) [(6S)-3-[(4-amino-2-tert-butyl-5-methylphenyl)sulfanyl]-4-hydroxy-6-[2-(4-hydroxyphenyl)ethyl]-6-(propan-2-yl)-5,6-dihydro-2H-pyran-2-one]"
13,,,"Cc1cc(SC2C(=O)CC(CCc3ccc(O)cc3)(C(C)C)OC2=O)c(C(C)(C)C)cc1NC(=O)c1ccccc1 (configuration not stated) [N-(5-tert-Butyl-4-{4-hydroxy-6-[2-(4-hydroxy-phenyl)-ethyl]-6-isopropyl-2-oxo-5,6-dihydro-2H-pyran-3-ylsulfanyl}-2-methyl-phenyl)-benzamide]"
5.1,,,"Cc1cc(SC2C(=O)CC(CCc3ccc(O)cc3)(C(C)C)OC2=O)c(C(C)(C)C)cc1NC(=O)c1ccncc1 (configuration not stated) [N-(5-tert-Butyl-4-{4-hydroxy-6-[2-(4-hydroxy-phenyl)-ethyl]-6-isopropyl-2-oxo-5,6-dihydro-2H-pyran-3-ylsulfanyl}-2-methyl-phenyl)-isonicotinamide]"
5.1,,,"Cc1cc(SC2C(=O)CC(CCc3ccc(O)cc3)(C(C)C)OC2=O)c(C(C)(C)C)cc1NC(=O)c1cccnc1 (configuration not stated) [N-(5-tert-Butyl-4-{4-hydroxy-6-[2-(4-hydroxy-phenyl)-ethyl]-6-isopropyl-2-oxo-5,6-dihydro-2H-pyran-3-ylsulfanyl}-2-methyl-phenyl)-nicotinamide]"
